Values of other authors, collected in patent US9763453B2, “Antimicrobial coating for inhibition of bacterial adhesion and biofilm formation” (Bacterin International, Inc., priority 2004, dated 2017).

Conditions: aqueous solutions

- Ksp: ~10^−18
SMILES: [Ag][I] [silver iodide]
